Reference: US20220125052A1, “Herbicidal Compositions” (SYNGENTA CROP PROTECTION AG, priority 2019, published 2022)

How the values were obtained:
Test in all cases: Post-emergence efficacy (B1), glasshouse spray test
Assay type in all cases: in vivo
Lolium perenne (LOLPE) = details: evaluated after 13 days, 100=total damage to plant, 0=no damage to plant
Procedure: (§1) B1 Post-emergence efficacy Seeds of a variety of test species were sown in standard laom-based soil in pots:—Ipomoea hederacea (IPOHE), Euphorbia heterophylla (EPHHL), Chenopodium album (CHEAL), Amaranthus palmeri (AMAPA), Lolium perenne (LOLPE), Digitaria sanguinalis (DIGSA), Eleusine indica (ELEIN), Echinochloa crus-galli (ECHCG), Setaria faberi (SETFA). After cultivation for 14 days (post-emergence) under controlled conditions in a glasshouse (at 24/16° C., day/night; 14 hours light; 65% humidity), the plants were sprayed with an aqueous spray solution derived from the dissolution of the technical active ingredient Formula (I) in a small amount of acetone and a special solvent and emulsifier mixture referred to as IF50 (11.12% Emulsogen EL360 TM+44.44% N-methylpyrrolidone+44.44% Dowanol DPM glycol ether), to create a 50 g/l solution which was then diluted to required concentration using 0.25% or 1% Empicol ESC70 (Sodium lauryl ether sulphate)+1% ammonium sulphate as diluent. The delivery of the aqueous spray solution was via a laboratory track sprayer which delivered the aqueous spray composition at a rate of 200 litres per hectare, using a flat fan nozzle (Teejet 11002VS) and an application volume of 200 litre/ha (at 2 bar). The test plants were then grown in a glasshouse under controlled conditions (at 24/16° C., day/night; 14 hours light; 65% humidity) and watered twice daily. After 13 days the test was evaluated (100=total damage to plant; 0=no damage to plant).

Eleusine indica (ELEIN) = details: 500 g/Ha, evaluated after 13 days, 100=total damage to plant, 0=no damage to plant
Procedure: as §1

[1] = tested on: Euphorbia heterophylla (EPHHL); details: 500 g/Ha, evaluated after 13 days, 100=total damage to plant, 0=no damage to plant
Procedure: as §1

Setaria faberi (SETFA) = details: 500 g/Ha, evaluated after 13 days, 100=total damage to plant, 0=no damage to plant
Procedure: as §1

[2] = tested on: Digitaria sanguinalis (DIGSA); details: 500 g/Ha, evaluated after 13 days, 100=total damage to plant, 0=no damage to plant
Procedure: as §1

[3] = tested on: Echinochloa crus-galli (ECHCG); details: 500 g/Ha, evaluated after 13 days, 100=total damage to plant, 0=no damage to plant
Procedure: as §1

[4] = tested on: Chenopodium album (CHEAL); details: 500 g/Ha, evaluated after 13 days, 100=total damage to plant, 0=no damage to plant
Procedure: as §1

[5] = tested on: Amaranthus palmeri (AMAPA); details: 500 g/Ha, evaluated after 13 days, 100=total damage to plant, 0=no damage to plant
Procedure: as §1

O=C(O)CC[n+]1ccc(-c2ncccn2)cn1.[Cl-] [Compound 1.010, 3-(4-pyrimidin-2-ylpyridazin-1-ium-1-yl)propanoic acid chloride]
Control of weed species after post-emergence application: LOLPE (Lolium perenne (LOLPE); 500 g/Ha): 90

O=C(O)CC[n+]1ccc(-c2ncccn2)cn1.[Br-] [Compound 1.021, 3-(4-pyrimidin-2-ylpyridazin-1-ium-1-yl)propanoic acid bromide]
Control of weed species after post-emergence application: ELEIN (Eleusine indica (ELEIN)): 100 | Control of weed species after post-emergence application: EPHHL [1]: 100 | Control of weed species after post-emergence application: SETFA (Setaria faberi (SETFA)): 100 | Control of weed species after post-emergence application: DIGSA [2]: 100 | Control of weed species after post-emergence application: ECHCG [3]: 100

O=C(O)CC[n+]1ccc(-c2ncccn2)cn1 [Compound 1.023, 3-(4-pyrimidin-2-ylpyridazin-1-ium-1-yl)propanoic acid 2,2,2-trifluoroacetate]
pest or weed control at 500 g/ha (Lolium perenne (LOLPE); Lolium perenne, 312 h, read-out: Control of weed species after post-emergence application: LOLPE): 90%

O=C(O)CC[n+]1ccc(-c2cccnn2)cn1.[Cl-] [Compound 1.027, 3-(4-pyridazin-3-ylpyridazin-1-ium-1-yl)propanoic acid chloride]
Control of weed species after post-emergence application: EPHHL [1]: 100 | Control of weed species after post-emergence application: CHEAL [4]: 100 | Control of weed species after post-emergence application: SETFA (Setaria faberi (SETFA)): 100 | Control of weed species after post-emergence application: AMAPA [5]: 100 | Control of weed species after post-emergence application: DIGSA [2]: 100 | Control of weed species after post-emergence application: ECHCG [3]: 100

Cl.N[C@@H](CCC[n+]1ccc(-c2ncccn2)cn1)C(=O)O.[Cl-] [Compound 1.030, [(1S)-1-carboxy-4-(4-pyrimidin-2-ylpyridazin-1-ium-1-yl)butyl]-ammonium dichloride]
Control of weed species after post-emergence application: SETFA (Setaria faberi (SETFA)): 100 | Control of weed species after post-emergence application: DIGSA [2]: 100 | Control of weed species after post-emergence application: ECHCG [3]: 100
